{
  "source": "PubChem BioAssay AID264",
  "about": "(DTP/NCI, 2004)",
  "system": "nude mice, LX-1 lung xenograft intrarenal, tumor weight T/C",
  "assay": "NCI In Vivo Anticancer Drug Screen. Data for tumor model Human Lung LX-1 Xenograft (intrarenal inoculation) in NU/NU Swiss (nude) mice",
  "conditions": "endpoint: mean tumor weight change, higher = larger tumour",
  "procedure,_shortened": "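In vivo, transplantable tumor; compound vs vehicle arms; tumor size measured; value = T/C.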",
  "key": {"[1]": {"conditions": "dose: 50.0 mg/kg/injection, schedule: Q01DX010 (sc), vehicle: saline with Tween-80"}, "[2]": {"conditions": "dose: 100.0 mg/kg/injection, schedule: Q01DX010 (sc), vehicle: saline with Tween-80"}, "[3]": {"conditions": "dose: 200.0 mg/kg/injection, schedule: Q01DX010 (sc), vehicle: saline with Tween-80"}, "[4]": {"conditions": "dose: 300.0 mg/kg/injection, schedule: Q04DX003 (sc), vehicle: saline"}, "[5]": {"conditions": "dose: 600.0 mg/kg/injection, schedule: Q04DX003 (sc), vehicle: saline"}, "[6]": {"conditions": "dose: 1200.0 mg/kg/injection, schedule: Q04DX003 (sc), vehicle: saline"}, "[7]": {"conditions": "dose: 2400.0 mg/kg/injection, schedule: Q04DX003 (sc), vehicle: saline"}, "[8]": {"conditions": "dose: 100.0 mg/kg/injection, schedule: Q01DX010 (sc), vehicle: saline"}},
  "note": "Where “and” joins values, the source holds several entries; their conditions need not be identical. Equal values may be shown once. Records with an inconclusive call do not appear.",
  "data": [
    {"smiles": "C1OC1CO[C@@H]1CO[C@H]2[C@@H]1OC[C@H]2OCC1CO1", "note": "(some centres undefined)", "values": [
      {"measurement": "T/C", "setting": "[1]", "result": "95 % of control"},
      {"measurement": "T/C", "setting": "[2]", "result": "80 % of control"},
      {"measurement": "T/C", "setting": "[3]", "result": "65 % of control"}
    ]},
    {"smiles": "CC1(C)CC1(Br)Br", "values": [
      {"measurement": "T/C", "setting": "[2]", "result": "160 % of control"},
      {"measurement": "T/C", "setting": "[3]", "result": "76 % of control and 77 % of control"},
      {"measurement": "T/C", "setting": "dose: 400.0 mg/kg/injection, schedule: Q01DX010 (sc), vehicle: saline with Tween-80", "result": "58 % of control"}
    ]},
    {"smiles": "CSCS(=O)C[C@H](CO)NC(=O)/C=C/c1c(C)[nH]c(=O)[nH]c1=O", "note": "(some centres undefined)", "values": [
      {"measurement": "T/C", "setting": "dose: 0.75 mg/kg/injection, schedule: Q04DX003 (sc), vehicle: saline", "result": "76 % of control"},
      {"measurement": "T/C", "setting": "dose: 1.5 mg/kg/injection, schedule: Q04DX003 (sc), vehicle: saline", "result": "70 % of control"},
      {"measurement": "T/C", "setting": "dose: 3.0 mg/kg/injection, schedule: Q04DX003 (sc), vehicle: saline", "result": "68 % of control"}
    ]},
    {"smiles": "Cc1c(N)nc(C(CC(N)=O)NCC(N)C(N)=O)nc1C(=O)NC(C(=O)NC(C)C(O)C(C)C(=O)NC(C(=O)NCCc1nc(-c2nc(C(=O)NCCCNC(C)c3ccccc3)cs2)cs1)C(C)O)C(OC1OC(CO)C(O)C(O)C1OC1OC(CO)C(O)C(OC(N)=O)C1O)c1cnc[nH]1", "note": "(centres undefined)", "values": [
      {"measurement": "T/C", "setting": "dose: 2.0 mg/kg/injection, schedule: Q01DX010 (sc), vehicle: saline", "result": "53 % of control"},
      {"measurement": "T/C", "setting": "dose: 4.0 mg/kg/injection, schedule: Q01DX010 (sc), vehicle: saline", "result": "32 % of control"},
      {"measurement": "T/C", "setting": "dose: 16.0 mg/kg/injection, schedule: Q01DX010 (sc), vehicle: saline", "result": "22 % of control and 28 % of control"},
      {"measurement": "T/C", "setting": "dose: 32.0 mg/kg/injection, schedule: Q01DX010 (sc), vehicle: saline", "result": "39 % of control"}
    ]},
    {"smiles": "C=CCNc1nc2c(s1)CCc1cc(OC)c(OC)cc1-2", "values": [
      {"measurement": "T/C", "setting": "dose: 150.0 mg/kg/injection, schedule: Q04DX003 (sc), vehicle: saline with Tween-80", "result": "89 % of control"}
    ]},
    {"smiles": "CC[C@@]1(O)C[C@H](OC2CC(N(C)C)C(OC3CC(O)C(OC4CCC(=O)C(C)O4)C(C)O3)C(C)O2)c2c(cc3c(c2O)C(=O)c2c(O)ccc(O)c2C3=O)[C@H]1C(=O)OC", "note": "(some centres undefined)", "values": [
      {"measurement": "T/C", "setting": "dose: 3.0 mg/kg/injection, schedule: Q04DX003 (sc), vehicle: water", "result": "51 % of control"},
      {"measurement": "T/C", "setting": "dose: 6.0 mg/kg/injection, schedule: Q04DX003 (sc), vehicle: water", "result": "79 % of control"}
    ]},
    {"smiles": "O=S(=O)(O)O.[NH-]C1CCCCC1[NH-].[Pt+2]", "note": "(centres undefined)", "values": [
      {"measurement": "T/C", "setting": "dose: 0.63 mg/kg/injection, schedule: Q01DX010 (sc), vehicle: dextrose", "result": "85 % of control"},
      {"measurement": "T/C", "setting": "dose: 1.25 mg/kg/injection, schedule: Q01DX010 (sc), vehicle: dextrose", "result": "90 % of control"},
      {"measurement": "T/C", "setting": "dose: 2.5 mg/kg/injection, schedule: Q01DX010 (sc), vehicle: dextrose", "result": "82 % of control"}
    ]},
    {"smiles": "O=C1N[C@@H]2C(=C[C@H](O)[C@@H](O)[C@H]2O)c2cc3c(c(O)c21)OCO3", "values": [
      {"measurement": "T/C", "setting": "dose: 2.5 mg/kg/injection, schedule: Q04DX003 (sc), vehicle: saline with Tween-80", "result": "97 % of control"},
      {"measurement": "T/C", "setting": "dose: 5.0 mg/kg/injection, schedule: Q04DX003 (sc), vehicle: saline with Tween-80", "result": "109 % of control"}
    ]},
    {"smiles": "Cc1ncc([N+](=O)[O-])n1CCSC(N)=O", "values": [
      {"measurement": "T/C", "setting": "[1]", "result": "90 % of control"}
    ]},
    {"smiles": "COC(=O)C(N)Cc1ccc(O)c(O)c1", "note": "(centres undefined)", "values": [
      {"measurement": "T/C", "setting": "[4]", "result": "118 % of control"},
      {"measurement": "T/C", "setting": "[5]", "result": "108 % of control"},
      {"measurement": "T/C", "setting": "[6]", "result": "106 % of control"},
      {"measurement": "T/C", "setting": "[7]", "result": "108 % of control"}
    ]},
    {"smiles": "OCC1OC(n2cnc3c(=S)nc[nH]c32)C(O)C1O", "note": "(centres undefined)", "values": [
      {"measurement": "T/C", "setting": "[8]", "result": "86 % of control"},
      {"measurement": "T/C", "setting": "[4]", "result": "75 % of control"},
      {"measurement": "T/C", "setting": "[5]", "result": "99 % of control"},
      {"measurement": "T/C", "setting": "[6]", "result": "124 % of control"},
      {"measurement": "T/C", "setting": "[7]", "result": "65 % of control"}
    ]},
    {"smiles": "CCCC(=O)Nc1ncnc2c1ncn2C1OC2COP(=O)(O)OC2C1OC(=O)CCC", "note": "(centres undefined)", "values": [
      {"measurement": "T/C", "setting": "[8]", "result": "122 % of control"},
      {"measurement": "T/C", "setting": "dose: 200.0 mg/kg/injection, schedule: Q01DX010 (sc), vehicle: saline", "result": "92 % of control"},
      {"measurement": "T/C", "setting": "dose: 400.0 mg/kg/injection, schedule: Q01DX010 (sc), vehicle: saline", "result": "81 % of control"}
    ]}
  ]
}
